According to ChEMBL document CHEMBL1201862, “PubChem BioAssay data set” (2004):
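Grown in 96-well plates, cells were treated for 48 hours with each compound at five concentrations. Insufficient inhibition: endpoint recorded as highest concentration tested. At the GI50, growth is halved.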 Calls of active or inactive are those of the source. No stated cut-off is given here; in the data, active = GI50 up to about 1.1 µM and inactive = higher.

Tests used:
Test in all cases: NCI tumour cell line growth inhibition, 48 h
OVCAR-3 = test system: OVCAR-3
SK-MEL-5 = test system: SK-MEL-5
TK-10 = test system: TK-10
OVCAR-8 = test system: OVCAR-8
Malme-3M = test system: Malme-3M
UO-31 = test system: UO-31
HOP-62 = test system: HOP-62
OVCAR-5 = test system: OVCAR-5
SR = test system: SR
SF-268 = test system: SF-268
CAKI-1 = test system: CAKI-1
HCC 2998 = test system: HCC 2998
KM-20L2 = test system: KM-20L2
A549 = test system: A549
CCRF-CEM = test system: CCRF-CEM
SK-OV-3 = test system: SK-OV-3
M14 = test system: M14
NCI-H226 = test system: NCI-H226
RXF 393 = test system: RXF 393
A498 = test system: A498
LXFL 529 = test system: LXFL 529
SF-539 = test system: SF-539
SK-MEL-2 = test system: SK-MEL-2
EKVX = test system: EKVX
K562 = test system: K562
HCT-116 = test system: HCT-116
OVCAR-4 = test system: OVCAR-4
SNB-19 = test system: SNB-19
SNB-78 = test system: SNB-78
M19-MEL = test system: M19-MEL
HOP-18 = test system: HOP-18
SW-620 = test system: SW-620
NCI-H460 = test system: NCI-H460
SNB-75 = test system: SNB-75
DLD-1 = test system: DLD-1
SK-MEL-28 = test system: SK-MEL-28
ACHN = test system: ACHN
NCI-H522 = test system: NCI-H522
RXF 631 = test system: RXF 631
IGROV-1 = test system: IGROV-1
UACC-62 = test system: UACC-62
COLO 205 = test system: COLO 205
UACC-257 = test system: UACC-257
NCI-H23 = test system: NCI-H23
SN12C = test system: SN12C
HT-29 = test system: HT-29
RPMI-8226 = test system: RPMI-8226
SF-295 = test system: SF-295
U-251 = test system: U-251
HCT-15 = test system: HCT-15
MOLT-4 = test system: MOLT-4
KM12 = test system: KM12
LOX IMVI = test system: LOX IMVI
DMS-114 = test system: DMS-114
HOP-92 = test system: HOP-92
786-0 = test system: 786-0
XF498 = test system: XF498
HL-60 = test system: HL-60
DMS-273 = test system: DMS-273

Compound: CC/C(SC)=[N+](\C)[O-]
- GI50 (OVCAR-3): > 100 µM (inactive)
- GI50 (SK-MEL-5): > 100 µM (inactive)
- GI50 (TK-10): > 100 µM (inactive)
- GI50 (OVCAR-8): > 100 µM (inactive)
- GI50 (Malme-3M): > 100 µM (inactive)
- GI50 (UO-31): > 100 µM (inactive)
- GI50 (HOP-62): > 100 µM (inactive)
- GI50 (OVCAR-5): > 100 µM (inactive)
- GI50 (SR): 25.8 µM (inactive)
- GI50 (SF-268): > 100 µM (inactive)
- GI50 (CAKI-1): > 100 µM (inactive)
- GI50 (HCC 2998): > 100 µM (inactive)
- GI50 (KM-20L2): > 100 µM (inactive)
- GI50 (A549): > 100 µM (inactive)
- GI50 (CCRF-CEM): 15.5 µM (inactive)
- GI50 (SK-OV-3): > 100 µM (inactive)
- GI50 (M14): > 100 µM (inactive)
- GI50 (NCI-H226): > 100 µM (inactive)
- GI50 (RXF 393): > 100 µM (inactive)
- GI50 (A498): > 100 µM (inactive)
- GI50 (LXFL 529): > 100 µM (inactive)
- GI50 (SF-539): > 100 µM (inactive)
- GI50 (SK-MEL-2): > 100 µM (inactive)
- GI50 (EKVX): > 100 µM (inactive)
- GI50 (K562): 44.2 µM (inactive)
- GI50 (HCT-116): > 46.9 µM (inactive)
- GI50 (OVCAR-4): > 100 µM (inactive)
- GI50 (SNB-19): > 100 µM (inactive)
- GI50 (SNB-78): > 100 µM (inactive)
- GI50 (M19-MEL): > 100 µM (inactive)
- GI50 (HOP-18): > 100 µM (inactive)
- GI50 (SW-620): > 100 µM (inactive)
- GI50 (NCI-H460): > 100 µM (inactive)
- GI50 (SNB-75): > 67.9 µM (inactive)
- GI50 (DLD-1): > 45.9 µM (inactive)
- GI50 (SK-MEL-28): > 100 µM (inactive)
- GI50 (ACHN): > 100 µM (inactive)
- GI50 (NCI-H522): > 43.1 µM (inactive)
- GI50 (RXF 631): > 100 µM (inactive)
- GI50 (IGROV-1): > 100 µM (inactive)
- GI50 (UACC-62): > 100 µM (inactive)
- GI50 (COLO 205): > 44.8 µM (inactive)
- GI50 (UACC-257): > 100 µM (inactive)
- GI50 (NCI-H23): > 100 µM (inactive)
- GI50 (SN12C): > 100 µM (inactive)
- GI50 (HT-29): > 100 µM (inactive)
- GI50 (RPMI-8226): > 93.1 µM (inactive)
- GI50 (SF-295): > 100 µM (inactive)
- GI50 (U-251): > 100 µM (inactive)
- GI50 (HCT-15): 57.9 µM
- GI50 (MOLT-4): 32.7 µM (inactive)
- GI50 (KM12): > 100 µM (inactive)
- GI50 (LOX IMVI): > 41.3 µM (inactive)
- GI50 (DMS-114): > 39 µM (inactive)
- GI50 (HOP-92): > 100 µM (inactive)
- GI50 (786-0): > 100 µM (inactive)
- GI50 (XF498): > 100 µM (inactive)
- GI50 (HL-60): 17.9 µM (inactive)

Compound: Cc1ccc2nc(NC(=O)C(=O)C(C#N)c3nc4ccccc4s3)sc2c1 (configuration not stated)
- GI50 (OVCAR-3): 23.4 µM (inactive)
- GI50 (SK-MEL-5): 19.4 µM (inactive)
- GI50 (TK-10): 30.8 µM (inactive)
- GI50 (OVCAR-8): 30.4 µM (inactive)
- GI50 (Malme-3M): 43.7 µM (inactive)
- GI50 (UO-31): 39.8 µM (inactive)
- GI50 (HOP-62): 14.5 µM (inactive)
- GI50 (OVCAR-5): 57.5 µM (inactive)
- GI50 (SF-268): 51.6 µM (inactive)
- GI50 (CAKI-1): 42.2 µM (inactive)
- GI50 (HCC 2998): 79.8 µM (inactive)
- GI50 (KM-20L2): 28 µM (inactive)
- GI50 (SK-OV-3): 55.8 µM (inactive)
- GI50 (M14): 33.8 µM (inactive)
- GI50 (NCI-H226): 25.1 µM (inactive)
- GI50 (RXF 393): 31.5 µM (inactive)
- GI50 (A498): 19.5 µM (inactive)
- GI50 (LXFL 529): 28.4 µM (inactive)
- GI50 (SF-539): 22.3 µM (inactive)
- GI50 (SK-MEL-2): 32.4 µM (inactive)
- GI50 (EKVX): 39 µM (inactive)
- GI50 (K562): 29.2 µM (inactive)
- GI50 (HCT-116): 38.4 µM (inactive)
- GI50 (OVCAR-4): 39 µM (inactive)
- GI50 (SNB-19): 31.8 µM (inactive)
- GI50 (SNB-78): 36.3 µM (inactive)
- GI50 (M19-MEL): 43.6 µM (inactive)
- GI50 (HOP-18): 11.6 µM (inactive)
- GI50 (SW-620): 55.1 µM (inactive)
- GI50 (NCI-H460): 34 µM (inactive)
- GI50 (SNB-75): 40.6 µM (inactive)
- GI50 (SK-MEL-28): 51.8 µM (inactive)
- GI50 (ACHN): 42.3 µM (inactive)
- GI50 (NCI-H522): 32.1 µM (inactive)
- GI50 (RXF 631): 44.7 µM (inactive)
- GI50 (IGROV-1): 17.8 µM (inactive)
- GI50 (UACC-62): 30.7 µM (inactive)
- GI50 (DMS-273): 28.4 µM (inactive)
- GI50 (COLO 205): 18 µM (inactive)
- GI50 (UACC-257): 28 µM (inactive)
- GI50 (NCI-H23): 35 µM (inactive)
- GI50 (SN12C): 54 µM (inactive)
- GI50 (HT-29): 26.8 µM (inactive)
- GI50 (RPMI-8226): 28.3 µM (inactive)
- GI50 (SF-295): 37.2 µM (inactive)
- GI50 (U-251): 33.7 µM (inactive)
- GI50 (HCT-15): 32 µM
- GI50 (MOLT-4): 20.4 µM (inactive)
- GI50 (KM12): 47.2 µM (inactive)
- GI50 (LOX IMVI): 37.2 µM (inactive)
- GI50 (DMS-114): 24.8 µM (inactive)
- GI50 (HOP-92): 26.4 µM (inactive)
- GI50 (786-0): 44.5 µM (inactive)
- GI50 (XF498): 28.8 µM (inactive)
